# Measurements as given in patent publication US20050112573A1, “Method of detecting toxic substance” (priority 2001, published 2005).
# System: yeast genes (level of expressed mRNA)
# Assay: DNA chip analysis of expressed mRNA of yeast genes after 2 h culture with a toxic chemical substance
# Format: cell-based, Saccharomyces cerevisiae S288C
# Conditions: for The level of expressed mRNA in the presence of chemical substance/ (ratio to absence of chemical substance): stress protein genes, DNA chip
# Outline: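 S. cerevisiae S288C grown at 25° C in YPD; toxicant added at log phase at growth-inhibitory, non-lethal levels for 2 h, untreated cells as control. Poly(A) mRNA reverse-transcribed with Cy3/Cy5-dUTP, hybridized to whole-genome chip at 65° C >12 h; value is fluorescence ratio versus untreated.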
structure (smiles),measurement,setting,value
"CCCCCCCCCCCCOS(=O)(=O)[O-].[Na+] [(18), sodium lauryl sulfate]","The level of expressed mRNA in the presence of chemical substance/ in its absence, gene YDL078C","yeast gene YDL078C, ratio of DNA chip fluorescence intensity to that without chemical substance",2.0
same,"The level of expressed mRNA in the presence of chemical substance/ (in its absence), gene YDL215C","yeast gene YDL215C, ratio of DNA chip fluorescence intensity to that without chemical substance",1.6
same,The level of expressed mRNA in the presence of chemical substance/The level of expressed mRNA in the absence of chemical substance,yeast gene YDL238C,1.3
same,The level of expressed mRNA in the presence of chemical substance/The level of expressed mRNA in the absence of chemical substance,yeast gene YDR055W,1.9
same,"The level of expressed mRNA in the presence of chemical substance/ (in its absence), gene YDR073W","yeast gene YDR073W, ratio of DNA chip fluorescence intensity to that without chemical substance",2.3
same,"The level of expressed mRNA in the presence of chemical substance/ in its absence, gene YDR079W","yeast gene YDR079W, energy system protein genes, 2 h culture with the chemical, ratio to control without chemical",1.3
same,"The level of expressed mRNA in the presence of chemical substance/ (ratio to absence), gene YDR079W","yeast gene YDR079W, mitochondria-located protein genes, 2 h culture with chemical",1.3
same,The level of expressed mRNA in the presence of chemical substance/The level of expressed mRNA in the absence of chemical substance,yeast gene YDR084C,1.3
same,The level of expressed mRNA in the presence of chemical substance/The level of expressed mRNA in the absence of chemical substance,yeast gene YDR085C,1.8
same,The level of expressed mRNA in the presence of chemical substance/The level of expressed mRNA in the absence of chemical substance,yeast gene YDR104C,1.0
same,The level of expressed mRNA in the presence of chemical substance/The level of expressed mRNA in the absence of chemical substance,yeast gene YDR115W,1.4
same,The level of expressed mRNA in the presence of chemical substance/The level of expressed mRNA in the absence of chemical substance,yeast gene YDR259C,0.8
same,"The level of expressed mRNA in the presence of chemical substance/ (in its absence), gene YDR297W","yeast gene YDR297W, ratio of DNA chip fluorescence intensity to that without chemical substance",1.9
same,The level of expressed mRNA in the presence of chemical substance/The level of expressed mRNA in the absence of chemical substance,yeast gene YDR315C,1.2
same,The level of expressed mRNA in the presence of chemical substance/The level of expressed mRNA in the absence of chemical substance,yeast gene YDR358W,1.9
same,"The level of expressed mRNA in the presence of chemical substance/ (ratio to absence), gene YDR377W","yeast gene YDR377W, mitochondria-located protein genes, 2 h culture with chemical",2.5
same,"The level of expressed mRNA in the presence of chemical substance/ (in its absence), gene YDR387C","yeast gene YDR387C, ratio of DNA chip fluorescence intensity to that without chemical substance",1.1
same,The level of expressed mRNA in the presence of chemical substance/The level of expressed mRNA in the absence of chemical substance,yeast gene YDR388W,1.3
same,The level of expressed mRNA in the presence of chemical substance/The level of expressed mRNA in the absence of chemical substance,yeast gene YDR432W,0.7
same,The level of expressed mRNA in the presence of chemical substance/The level of expressed mRNA in the absence of chemical substance,yeast gene YDR481C,1.4
same,The level of expressed mRNA in the presence of chemical substance/The level of expressed mRNA in the absence of chemical substance,yeast gene YDR510W,1.5
same,The level of expressed mRNA in the presence of chemical substance/ (ratio to absence of chemical substance),yeast gene YEL039C,1.1
same,The level of expressed mRNA in the presence of chemical substance/The level of expressed mRNA in the absence of chemical substance,yeast gene YEL042W,0.8
same,The level of expressed mRNA in the presence of chemical substance/The level of expressed mRNA in the absence of chemical substance,yeast gene YEL066W,1.1
same,"The level of expressed mRNA in the presence of chemical substance/ (in its absence), gene YER015W","yeast gene YER015W, ratio of DNA chip fluorescence intensity to that without chemical substance",2.6
same,The level of expressed mRNA in the presence of chemical substance/The level of expressed mRNA in the absence of chemical substance,yeast gene YER039C,1.1
same,The level of expressed mRNA in the presence of chemical substance/ (ratio to absence of chemical substance),yeast gene YER057C,1.8
same,The level of expressed mRNA in the presence of chemical substance/The level of expressed mRNA in the absence of chemical substance,yeast gene YER107C,1.2
same,The level of expressed mRNA in the presence of chemical substance/The level of expressed mRNA in the absence of chemical substance,yeast gene YER130C,2.5
same,The level of expressed mRNA in the presence of chemical substance/The level of expressed mRNA in the absence of chemical substance,yeast gene YFL028C,1.5
same,The level of expressed mRNA in the presence of chemical substance/The level of expressed mRNA in the absence of chemical substance,yeast gene YFL043C,1.2
same,"The level of expressed mRNA in the presence of chemical substance/ (in its absence), gene YGL035C","yeast gene YGL035C, ratio of DNA chip fluorescence intensity to that without chemical substance",1.2
same,"The level of expressed mRNA in the presence of chemical substance/ (in its absence), gene YGL115W","yeast gene YGL115W, ratio of DNA chip fluorescence intensity to that without chemical substance",1.2
same,The level of expressed mRNA in the presence of chemical substance/ (ratio to absence of chemical substance),yeast gene YGL115W,1.2
same,The level of expressed mRNA in the presence of chemical substance/The level of expressed mRNA in the absence of chemical substance,yeast gene YGL158W,1.1
same,"The level of expressed mRNA in the presence of chemical substance/ (ratio to absence), gene YGL187C","yeast gene YGL187C, mitochondria-located protein genes, 2 h culture with chemical",2.4
same,"The level of expressed mRNA in the presence of chemical substance/ (in its absence), gene YGL205W","yeast gene YGL205W, ratio of DNA chip fluorescence intensity to that without chemical substance",9.1
same,The level of expressed mRNA in the presence of chemical substance/The level of expressed mRNA in the absence of chemical substance,yeast gene YGL229C,0.9
same,"The level of expressed mRNA in the presence of chemical substance/ in its absence, gene YGR062C","yeast gene YGR062C, energy system protein genes, 2 h culture with the chemical, ratio to control without chemical",1.1
same,"The level of expressed mRNA in the presence of chemical substance/ (ratio to absence), gene YGR062C","yeast gene YGR062C, mitochondria-located protein genes, 2 h culture with chemical",1.1
same,"The level of expressed mRNA in the presence of chemical substance/ (in its absence), gene YGR096W","yeast gene YGR096W, ratio of DNA chip fluorescence intensity to that without chemical substance",1.0
same,The level of expressed mRNA in the presence of chemical substance/The level of expressed mRNA in the absence of chemical substance,yeast gene YGR136W,1.8
same,The level of expressed mRNA in the presence of chemical substance/The level of expressed mRNA in the absence of chemical substance,yeast gene YGR189C,1.7
same,The level of expressed mRNA in the presence of chemical substance/The level of expressed mRNA in the absence of chemical substance,yeast gene YGR213C,8.5
same,The level of expressed mRNA in the presence of chemical substance/The level of expressed mRNA in the absence of chemical substance,yeast gene YGR257C,1.3
same,"The level of expressed mRNA in the presence of chemical substance/ (in its absence), gene YGR287C","yeast gene YGR287C, ratio of DNA chip fluorescence intensity to that without chemical substance",1.1
same,"The level of expressed mRNA in the presence of chemical substance/ (in its absence), gene YGR288W","yeast gene YGR288W, ratio of DNA chip fluorescence intensity to that without chemical substance",1.3
same,The level of expressed mRNA in the presence of chemical substance/ (ratio to absence of chemical substance),yeast gene YHL028W,2.5
same,The level of expressed mRNA in the presence of chemical substance/ (ratio to absence of chemical substance),yeast gene YHL046C,0.9
same,The level of expressed mRNA in the presence of chemical substance/The level of expressed mRNA in the absence of chemical substance,yeast gene YHR004C,1.6
same,The level of expressed mRNA in the presence of chemical substance/The level of expressed mRNA in the absence of chemical substance,yeast gene YHR071W,1.0
same,The level of expressed mRNA in the presence of chemical substance/The level of expressed mRNA in the absence of chemical substance,yeast gene YHR139C,1.3
same,The level of expressed mRNA in the presence of chemical substance/The level of expressed mRNA in the absence of chemical substance,yeast gene YHR142W,1.3
same,"The level of expressed mRNA in the presence of chemical substance/ (in its absence), gene YHR210C","yeast gene YHR210C, ratio of DNA chip fluorescence intensity to that without chemical substance",1.2
same,"The level of expressed mRNA in the presence of chemical substance/ (in its absence), gene YIL006W","yeast gene YIL006W, ratio of DNA chip fluorescence intensity to that without chemical substance",0.9
same,The level of expressed mRNA in the presence of chemical substance/ (ratio to absence of chemical substance),yeast gene YIL011W,0.8
same,The level of expressed mRNA in the presence of chemical substance/The level of expressed mRNA in the absence of chemical substance,yeast gene YIL123W,1.0
